{"source": "patent US10767179B2", "about": "“MicroRNA composition for the treatment of neuroblastoma” (THE BOARD OF REGENTS OF THE UNIVERSITY OF TEXAS SYSTEM, priority 2014, dated 2020)", "key": {"BE(2)-C cells [1]": {"tested_on": "BE(2)-C cells", "assay": "High-content screen: detection and quantification of neurite outgrowth", "assay_type": "cell-based", "parameters": "key: neurite length normalized to the mean of its plate", "conditions": "25 nM miRNA mimic, 4 days transfection, normalized to plate mean", "description": "FIG. 2A-2C. HCS screening of miRNA mimics identifies miRNAs that induce neurite outgrowth in BE(2)-C cells. (A-B) 2,500 cells were reverse-transfected with 25 nM miRNA mimics in 96-well plates. After 4 days transfection, relative neurite lengths were quantified as above. (A) The distribution of post-normalized neurite length measurements (grey histogram) for individual miRNA mimics from the screen and the fitted Gamma distribution curve (␣=3.27, ┘=0.444) (B) Correlation between two independent neurite length measurements for one library plate. Cells were transfected with 25 nM mimics in two independent 96-well plates. Normalized neurite lengths were measured as above. Correlation of neurite length between the two plates was analyzed using two-tailed Pearson Correlation with p<0.05 considered significant. (C) The distribution of the neurite lengths for untreated BE(2)-C cells. 2,500 Cells were plated into each well in 96 well plates. After 4 days of culture, neurite lengths were analyzed as above. Shown are the neurite length distribution histogram, the empirical density curve, and the fitted Gamma distribution curve (␣=30.23, ␣=0.033).\nDetection and Quantification of Neurite Outgrowth. Cells were plated and treated in 96-well plates. For detecting neurite outgrowth, cells were placed into ZOOM IncuCyte Imaging System (Essen BioScience) and cell images were taken under 20× microscopic magnification. For detecting neurite outgrowth in a time-dependent manner, cell images were taken every 6 h. The neurite lengths associated with each treatment were calculated using the neurite definition defined for each specific cell line using the NeuroTrack system (Essen BioScience).\nAnalysis of HCS Data. The relative neurite length associated with cells in each well on the screen plates was determined as above. In order to allow for plate-to-plate comparison, neurite length associated with each well in each plate was first internally normalized to the mean of the corresponding plate, and multiple screen plates were then aggregated together to generate the neurite length distribution. The data were then further analyzed to determine the distribution of the unaffected cells as described below, and to identify differentiation-inducing miRNA mimics.\nStatistical Analysis. For HCS, p-value for neurite length associated with each miRNA mimic was evaluated by assuming the distribution of neurite lengths follows Gamma distribution, and false Discovery Rate (FDR) was determined by Benjamini-Hochberg correction method for multiple tests (Benjamin, Journal of the Royal Statistical Society Series B (Methodological), 1995, 57(1):12). […] For all other conditions, the statistical significance for each treatment was determined using t-test by comparing the treatment group with control, with p<0.05 considered statistically significant."}, "BE(2)-C cells [2]": {"tested_on": "BE(2)-C cells", "assay": "Colony Formation Assay", "assay_type": "cell-based", "conditions": "25 nM mimic, 14 days", "description": "Colony Formation Assay. Cells were transfected as specified and cultured overnight. 500 cells were re-plated in 10 cm dishes. After 14 days, colonies were visualized by staining with 1% crystal violet. Colony numbers and sizes were analyzed using Image J (NIH, Bethesda, Md.)."}, "CDK4": {"tested_on": "CDK4", "assay": "Western blot of endogenous CDK4 protein", "assay_type": "cell-based", "conditions": "miRNA overexpression, 4 days", "source_text": "(§1) FIG. 7A-7F. Validation of CDK4 and STAT3 as direct targets that mediate the differentiation-inducing function of miR-506-3p and miR-124-3p. (A) The predicted interactions between miR-506-3p/miR-124-3p and the target sites in the 3′UTR of STAT3 and CDK4 rnRNAs. The seed sequences are underlined. (SEQ ID NOS: 1, 2, 18, 19, 20, 21) (B-C) Validation of the target sites of miR-506-3p and miR-124-3p in the 3′UTRs of (B) CDK4 and (C) STAT3 by luciferase reporter assay. BE(2)-C cells were co-transfected with the indicated vectors and miRNA mimics or control oligo. After 72 h of transfection, cells were lysed and luciferase activity was measured. […] Cells were transfected as above for 4 days, and protein levels were measured by Western blots. […] Cells were transfected with the indicated oligos, and neurite lengths were measured as above after 4 days transfection. Shown are representative cell images analyzed to define neurites and cell body areas (G) and quantification of neurite length under the indicated treatment conditions (H). **, p<0.01; *** , p<0.001; ****, p<0.0001.\n(§2) Western Blots. […] Protein concentration was determined using the Pierce BCA assay (Thermo Fisher Scientific). […] Bound antibodies were detected with secondary antibodies conjugated with horseradish peroxidase (HRP) visualized by enhanced chemiluminescent (ECL) substrate (Pierce)."}, "STAT3": {"tested_on": "STAT3", "assay": "Western blot of endogenous STAT3 protein", "assay_type": "cell-based", "conditions": "miRNA overexpression, 4 days", "source_text": "as §1, §2"}, "3′UTR of CDK4": {"tested_on": "3′UTR of CDK4", "assay": "Luciferase Reporter Assay, CDK4 3'UTR", "assay_type": "cell-based, human", "conditions": "BE(2)-C cells, 25 nM mimic, 72 h", "source_text": "Luciferase Reporter Assay. The segments of the wildtype 3′ UTRs for CDK4 and STAT3 containing the predicted target sites of miR-506-3p and miR-124-3p were cloned from human genomic DNA. Mutant constructs were generated with the seed target site (GUGCCUU (SEQ ID NO:4)) replaced by CACGGUU (SEQ ID NO:5). The 3′ UTRs were cloned downstream of the firefly luciferase coding sequences into the pmirGLO dual-luciferase reporter (Promega), a vector containing both firefly and Renilla luciferase cDNAs under the control of separate promoter/terminator systems. The firefly luciferase was used as the primary reporter for miRNA regulation of the 3′ UTR. The Renilla luciferase is an internal control for normalization. BE(2)-C cells were co-transfected with luciferase reporters (0.8 ng/μl) and miRNA mimics or control oligonucleotide (oligo) (25 nM). Luciferase activities were measured after 72 h using the Dual-Glo Luciferase Assay System (Promega). Firefly luciferase activity was normalized to Renilla luciferase activity to evaluate the effect of the miRNAs."}, "BE(2)-C cells [3]": {"tested_on": "BE(2)-C cells", "assay": "Endogenous miRNA expression by qRT-PCR in differentiated cells", "assay_type": "cell-based", "conditions": "differentiated BE(2)-C cells", "description": "Mrna And Mirna Expression. Total RNA was isolated as previously described (Du et al., Mol Cancer Res, 2009, 7(8):1234-43). mRNA expression profiling was done using the Illumina mRNA WG-6 v3 microarray platform. miRNA expression was measured by qRT-PCR using TaqMan microRNA Assays (Life Technologies) with average expression of RNU44 RNA, RNU19 RNA, GAPDH mRNA and 18s rRNA used as controls for normalizing RNA loading."}}}
{"substance": "hsa-miR-506-3p: miRNA mimic (Dharmacon), mature sequence UAAGGCACCCUUCUGAGUAGA (SEQ ID NO: 1) (UAAGGCACCCUUCUGAGUAGA(1); as printed in the source, key not given here)", "values": [{"measurement": "Neurite length (mean ± SD)", "setting": "BE(2)-C cells [1]", "result": "10.04 ± 3.41"}, {"measurement": "Colony formation", "setting": "BE(2)-C cells [2]", "result": "significantly reduce the ability of BE(2)-C to form colonies"}, {"measurement": "Endogenous CDK4 protein expression level", "setting": "CDK4", "result": "down-regulate"}, {"measurement": "Endogenous STAT3 protein expression level", "setting": "STAT3", "result": "down-regulate"}, {"measurement": "Target site in the 3′UTR of CDK4 by luciferase reporter", "setting": "3′UTR of CDK4", "result": "validated"}, {"measurement": "Overexpression of the endogenous miRNA in differentiated cells", "setting": "BE(2)-C cells [3]", "result": "380.1±48.4", "unit": "fold"}]}
